{
  "source": "patent US20230116703A1",
  "about": "“NOVEL ERGOLINES AND METHODS OF TREATING MOOD DISORDERS” (priority 2021, published 2023)",
  "tested_on": "C57BL/6 mice",
  "assay": "Marble burying test (MBT) in mice",
  "type": "in vivo",
  "details": "mouse, SC, 30-minute period",
  "description": "Compound 1 produced an anxiolytic-like effect in the marble burying test (MBT) in C57BL/6 mice (FIG. 3).\nAnimals. Adult male C57BL/6 mice, aged 8-10 weeks (body weight 20-25 g) were used in these experiments. Animals were housed under controlled temperatures and 12-hour light/dark cycles (lights on between 07:00-19:00 h), with ad libitum food and water. This study was carried out in strict accordance with the requirements of the Committee for the Purpose of Control and Supervision of Experiments on Animals (CPCSEA), India. All efforts were made to minimize suffering.\nDrugs and Drug Administration. Compound 1 was synthesized as described above. Desipramine HCl was commercially obtained. The test compound, vehicle, and the positive control desipramine were administered subcutaneously (SC), with doses calculated based on the freebase. Normal saline was used as the vehicle. All compounds were administered at a volume of 10 mL/kg. All treatments were administered 30 minutes prior to the start of behavioral testing. Group size was n=9-10 per treatment.\nMarble Burying Test (MBT). […] Mice were handled for about 2 min daily for the 3 days prior to the beginning of the experimental procedure. […] The total number of marbles buried were counted in three 10-minute time bins (total 30 minutes). […]",
  "data": [
    {"smiles": "CCCN1C[C@H](C(=O)N(CC)CC)C=C2c3cccc4[nH]cc(c34)C[C@H]21", "note": "[Compound 1, (6aR,9R)—N,N-diethyl-7-propyl-4,6,6a,7,8,9-hexahydroindolo[4,3-fg]quinoline-9-carboxamide]", "values": [
      {"measurement": "number of marbles buried compared to vehicle (in words)", "result": "reduced the number of marbles buried"}
    ]}
  ]
}
